Reference: US20230123334A1, “AMINO LIPID COMPOUND, PREPARATION METHOD THEREFOR, AND APPLICATION THEREOF” (SHENZHEN SHENXIN BIOTECHNOLOGY CO., LTD., priority 2020, published 2023)

These molecules were tested on HEK293 cells (assay: Preliminary screening as mRNA vectors, EGFP mRNA transfection of HEK293 cells). Conditions: EGFP mRNA 50 ng per well, 96-well plates; percentage of GFP fluorescent cells relative to total number of cells (Hoechst).
Assay type: cell-based
Procedure, shortened: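 Each well of HEK293 cells received 50 ng of EGFP mRNA. Efficiency was expressed as percent GFP-expressing cells over Hoechst-defined total cell number.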
With `CCCCCCCCCCCCCCCCNc1nc(NCC2CCN(C)CC2)nc(SCCCCCCCCCCC)n1` [Compound D10S11N16] the “Absolute mRNA transfection efficiency in HEK293 cells” value (“Absolute mRNA transfection efficiency” for short) was 10.4%.
With `CCCCCCCCCCCCSc1nc(NCCCCCCCC)nc(NCCCN2CCOCC2)n1` [Compound D8S12N8] the “Absolute mRNA transfection efficiency” value was 2.3%.
With `CCCCCCCCCCCCCNc1nc(NCC2CCN(C)CC2)nc(SCCCCCC)n1` [Compound D10S6N13] the “Absolute mRNA transfection efficiency” value was 22.7%.
In the case of `CCCCCCCCCCCSc1nc(NCCCN2CCN(C)CC2)nc(SCCCCCCC)n1` [Compound D9S7S11], the “Absolute mRNA transfection efficiency” value was 80.0%.
For `CCCCCCCCCCCCN(CCCCCCCCCCCC)c1nc(NCCCN2CCN(C)CC2)nc(SCCCCCCCCCC)n1` [D9S10^2N12], the “Absolute mRNA transfection efficiency” value was 0.3%.
`CCCCCCCCCCCCCCCCNc1nc(NCCN2CCN(C)CC2)nc(SCCCCCC)n1` [Compound D5S6N16] was tested, and the “Absolute mRNA transfection efficiency” value was 35.4%.
In the case of `CCCCCCCCCCCCCCCCNc1nc(NCCCN2CCN(C)CC2)nc(SCCCCCCCCCCCCCCCC)n1` [Compound D9S16N16], the “Absolute mRNA transfection efficiency” value was 0.1%.
In the case of `CCCCCCCCSc1nc(NCCCN2CCN(C)CC2)nc(SCCCCCCCC)n1` [Compound D9S8S8], the “Absolute mRNA transfection efficiency” value was 53.3%.
With `CCCCCCCCCNc1nc(NCCCN2CCN(C)CC2)nc(SCCCCCC)n1` [Compound D9S6N9] the “Absolute mRNA transfection efficiency” value was 0.9%.
With `CCCCCCCCCCSc1nc(NCCCN2CCN(C)CC2)nc(SCCCCCC)n1` [Compound D9S6S10] the “Absolute mRNA transfection efficiency” value was 23.7%.
For `CCCCCCCCCCCCN(CCCCCCCCCCCC)c1nc(NCCCN2CCN(C)CC2)nc(SCCCCCC)n1` [D9S6^2N12], the “Absolute mRNA transfection efficiency” value was 0.1%.
With `CCCCCCCCCCCSc1nc(NCCCCCCC)nc(NCCN2CCN(C)CC2)n1` [Compound D5S11N7] the “Absolute mRNA transfection efficiency” value was 8.5%.
With `CCCCCCCCCCCCCNc1nc(NCCN(C)C)nc(SCCCCCCCCCC)n1` [Compound D1S10N13] the “Absolute mRNA transfection efficiency” value was 1.7%.
With `CCCCCCCCCCCSc1nc(NCCCN2CCOCC2)nc(SCCCCCCCC)n1` [Compound D8S8S11] the “Absolute mRNA transfection efficiency” value was 22.2%.
`CCCCCCCCCSc1nc(NCCN2CCCC2)nc(SCCCCCCC)n1` [Compound D3S7S9] was tested, and the “Absolute mRNA transfection efficiency” value was 12.6%.
With `CCCCCCCCCCCCNc1nc(NCCN2CCN(C)CC2)nc(SCCCCCCC)n1` [Compound D5S7N12] the “Absolute mRNA transfection efficiency” value was 23.0%.
In the case of `CCCCCCCCCCCCCCCCCCSc1nc(NCCCCCCCCC)nc(NCCN(C)C)n1` [Compound D1S18N9], the “Absolute mRNA transfection efficiency” value was 30.3%.
In the case of `CCCCCCSc1nc(NCCN(CC)CC)nc(SCCCCCC)n1` [Compound D7S6S6], the “Absolute mRNA transfection efficiency” value was 19.5%.
`CCCCCCCCCCCCCCCCNc1nc(NCC2CCN(C)CC2)nc(SCCCCCCCCCCCCCCC)n1` [Compound D10S15N16] was tested, and the “Absolute mRNA transfection efficiency” value was 6.1%.
`CCCCCCCCCCCNc1nc(NCCN2CCOCC2)nc(SCCCCCCCCC)n1` [Compound D2S9N11] was tested, and the “Absolute mRNA transfection efficiency” value was 44.8%.
With `CCCCCCCCCCCCNc1nc(NCCN2CCCCC2)nc(SCCCCCCC)n1` [Compound D4S7N12] the “Absolute mRNA transfection efficiency” value was 0.6%.
For `CCCCCCCCCCSc1nc(NCCCCCCCC)nc(NCCCN2CCN(C)CC2)n1` [Compound D9S10N8], the “Absolute mRNA transfection efficiency” value was 5.4%.
In the case of `CCCCCCCCCCCNc1nc(NCCN(C)C)nc(SCCCCCCCC)n1` [Compound D1S8N11], the “Absolute mRNA transfection efficiency” value was 9.0%.
With `CCCCCCCCCCCCCCCCSc1nc(NCCCCCCC)nc(NCC2CCN(C)CC2)n1` [Compound D10S16N7] the “Absolute mRNA transfection efficiency” value was 29.6%.
`CCCCCCCCCCCCCCCSc1nc(NCCCN(C)C)nc(SCCCCCCC)n1` [Compound D6S7S15] was tested, and the “Absolute mRNA transfection efficiency” value was 90.0%.
For `CCCCCCCCCCCCCCCCCCNc1nc(NCCCN2CCOCC2)nc(SCCCCCCCCCCCCCCC)n1` [Compound D8S15N18], the “Absolute mRNA transfection efficiency” value was 0.4%.
With `CCCCCCCCCCCCCNc1nc(NCCN(CC)CC)nc(SCCCCCCCC)n1` [Compound D7S8N13] the “Absolute mRNA transfection efficiency” value was 14.2%.
In the case of `CCCCCCCCCCCCSc1nc(NCCCCCCC)nc(NCCN(C)C)n1` [Compound D1S12N7], the “Absolute mRNA transfection efficiency” value was 1.5%.
With `CCCCCCCCCCCCCCCCCCSc1nc(NCCN(CC)CC)nc(N(CCCCCCCCCCCC)CCCCCCCCCCCC)n1` [D7S18^2N12] the “Absolute mRNA transfection efficiency” value was 0.0%.
`CCCCCCCCCCCCCCCCCCSc1nc(NCCN(C)C)nc(SCCCCCC)n1` [Compound D1S6S18] was tested, and the “Absolute mRNA transfection efficiency” value was 15.9%.
In the case of `CCCCCCCNc1nc(NCCN2CCCCC2)nc(SCCCCCCC)n1` [Compound D4S7N7], the “Absolute mRNA transfection efficiency” value was 3.4%.
In the case of `CCCCCCCCCNc1nc(NCC2CCN(C)CC2)nc(SCCCCCCCC)n1` [Compound D10S8N9], the “Absolute mRNA transfection efficiency” value was 30.2%.
In the case of `CCCCCCCCCCCCSc1nc(NCC2CCN(C)CC2)nc(SCCCCCC)n1` [Compound D10S6S12], the “Absolute mRNA transfection efficiency” value was 41.2%.
In the case of `CCCCCCCCCCCCCCSc1nc(NCCCCCCC)nc(NCCCN2CCOCC2)n1` [Compound D8S14N7], the “Absolute mRNA transfection efficiency” value was 3.1%.
`CCCCCCCCCCCCCCCCSc1nc(NCCN(CC)CC)nc(SCCCCCC)n1` [Compound D7S6S16] was tested, and the “Absolute mRNA transfection efficiency” value was 2.3%.
For `CCCCCCCCCCCCCCCCCCSc1nc(NCCCCCC)nc(NCCN2CCCC2)n1` [Compound D3S18N6], the “Absolute mRNA transfection efficiency” value was 58.9%.
For `CCCCCCCCSc1nc(NCCCCCC)nc(NCCN2CCN(C)CC2)n1` [Compound D5S8N6], the “Absolute mRNA transfection efficiency” value was 1.6%.
`CCCCCCCCCCCCN(CCCCCCCCCCCC)c1nc(NCCN2CCCC2)nc(SCCCCCCCCCCC)n1` [D3S11^2N12] was tested, and the “Absolute mRNA transfection efficiency” value was 0.0%.
`CCCCCCCCCCCCCCCCNc1nc(NCCCN(C)C)nc(SCCCCCCCCC)n1` [Compound D6S9N16] was tested, and the “Absolute mRNA transfection efficiency” value was 46.2%.
In the case of `CCCCCCCCCCCCCCCSc1nc(NCCCCCCCCCCCC)nc(NCCCN2CCOCC2)n1` [Compound D8S15N12], the “Absolute mRNA transfection efficiency” value was 0.3%.
For `CCCCCCCCCCCCNc1nc(NCCCN(C)C)nc(SCCCCCCCCCCCC)n1` [Compound D6S12N12], the “Absolute mRNA transfection efficiency” value was 10.4%.
For `CCCCCCCCCCCCCCSc1nc(NCCCCCCCCCCC)nc(NCCCN2CCOCC2)n1` [Compound D8S14N11], the “Absolute mRNA transfection efficiency” value was 2.0%.
With `CCCCCCCCCCCCNc1nc(NCC2CCN(C)CC2)nc(SCCCCCCCCCCCC)n1` [Compound D10S12N12] the “Absolute mRNA transfection efficiency” value was 31.5%.
For `CCCCCCCCCCCCNc1nc(NCCN2CCCCC2)nc(SCCCCCCCCCC)n1` [Compound D4S10N12], the “Absolute mRNA transfection efficiency” value was 1.0%.
`CCCCCCCCCCCCCCCSc1nc(NCCCCCCCC)nc(NCCN2CCCCC2)n1` [Compound D4S15N8] was tested, and the “Absolute mRNA transfection efficiency” value was 1.6%.
`CCCCCCCCCCCCSc1nc(NCCCCCCCCCCC)nc(NCCN2CCOCC2)n1` [Compound D2S12N11] was tested, and the “Absolute mRNA transfection efficiency” value was 0.3%.
With `CCCCCCCCCCCCCCCCSc1nc(NCCCCCCCCCCCCC)nc(NCCCN2CCN(C)CC2)n1` [Compound D9S16N13] the “Absolute mRNA transfection efficiency” value was 1.4%.
For `CCCCCCCCCCCCCCCSc1nc(NCCCCCCCCC)nc(NCCN(C)C)n1` [Compound D1S15N9], the “Absolute mRNA transfection efficiency” value was 96.3%.
For `CCCCCCCCCCCCCCCCCCSc1nc(NCCCCCCCCCCCCCCCC)nc(NCC2CCN(C)CC2)n1` [Compound D10S18N16], the “Absolute mRNA transfection efficiency” value was 0.4%.
